{"source": "patent US8293266B2", "about": "“Paromomycin-supplemented feed stuff for turkey and use thereof for prophylaxis of histomoniasis, reduction of the horizontal spreading of histomoniasis, and for improved weight gain and feed conversion” (Huvepharma AD, priority 2007, dated 2012)", "key": {"[1]": {"system": "histomoniasis", "conditions": "use through the whole growth cycle; cited from earlier work"}, "[2]": {"system": "Histomonas meleagridis strain HNA.CO. A.L1", "assay": "Example 2: intracloacal Histomonas meleagridis challenge, seeder and contact birds, mortality and lesions", "format": "in vivo, turkey", "conditions": "lowest dose (250 ppm paromomycin sulphate), seeder birds mortality"}, "[3]": {"system": "histomoniasis", "conditions": "cited from earlier work"}, "[4]": {"system": "histomoniasis", "conditions": "200 and 400 ppm in broilers; cited from earlier work"}, "[5]": {"system": "Histomonas meleagridis strain HNA.CO.A.L1", "assay": "Example 1: turkeys inoculated intracloacally with Histomonas meleagridis, mortality and lesions", "format": "in vivo, turkey", "conditions": "low dose (500 ppm), mortality"}}, "note": "“Also recorded” adds a separate entry of the source."}
{"smiles": "CC[C@@H](C(=O)[C@@H](C)[C@@H](O)[C@H](C)[C@@H]1O[C@@H]([C@@H](CC)C(=O)O)CC[C@@H]1C)[C@H]1O[C@]2(C=C[C@@H](O)[C@]3(CC[C@@](C)([C@H]4CC[C@](O)(CC)[C@H](C)O4)O3)O2)[C@H](C)C[C@@H]1C", "note": "[salinomycin]", "values": [{"measurement": "effect with respect to histomoniasis", "setting": "[1]", "result": "no effect"}]}
{"smiles": "NC[C@@H]1O[C@H](O[C@H]2[C@@H](O)[C@H](O[C@@H]3[C@@H](O)[C@H](N)C[C@H](N)[C@H]3O[C@H]3O[C@H](CO)[C@@H](O)[C@H](O)[C@H]3N)O[C@@H]2CO)[C@H](N)[C@@H](O)[C@@H]1O", "note": "[paromomycin]", "values": [{"measurement": "protection to infection", "setting": "[2]", "result": "significant protection"}, {"measurement": "side effects due to the use of paromomycin", "setting": "[3]; 1000-2000 ppm in feed (dosage exceeding 1000 ppm)", "result": "certain toxicity effects; also recorded: lesions and hypertrophy of the liver"}, {"measurement": "mortality of infected birds", "setting": "[3]; fed continuously at 1000-2000 ppm in feed", "result": "reduced the mortality of infected birds"}, {"measurement": "effect on mortality and lesion scoring", "setting": "[4]", "result": "no effect on both mortality and lesion scoring"}, {"measurement": "use in-vivo as chemotherapeutic agent in broiler chickens", "setting": "[4]", "result": "ineffective"}, {"measurement": "protection compared to the infected untreated group", "setting": "[5]", "result": "significant protection"}]}
{"smiles": "CC[C@@]1([C@@H]2O[C@@H]([C@H]3O[C@@](O)(CO)[C@H](C)C[C@@H]3C)C[C@@H]2C)CC[C@H]([C@]2(C)CC[C@]3(C[C@H](O)[C@@H](C)[C@@H]([C@@H](C)[C@@H](OC)[C@H](C)C(=O)O)O3)O2)O1", "note": "[monensin]", "values": [{"measurement": "effect with respect to histomoniasis", "setting": "[1]", "result": "no effect"}]}
{"smiles": "N#CC(c1ccc(Cl)cc1)c1c(Cl)cc(-n2ncc(=O)[nH]c2=O)cc1Cl", "note": "(stereo not drawn) [diclasuril]", "values": [{"measurement": "effect with respect to histomoniasis", "setting": "[1]", "result": "no effect"}]}
